Assay results taken from patent US12139492B2 (Endotarget Inc., priority 2021, dated 2024).

Tests used:
Assay type in all cases: cell-based
Mino cells = assay: Antiproliferative effect, MTS cell viability assay, Mino cells; conditions: Homo sapiens, MINO, Mino mantle cell lymphoma cells; read-out: IC50 (anti-proliferation) Mino cells
Method in brief: (§1)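 Cells were exposed to compound at 0, 0.001, 0.01, 0.1, 1 and 10 μM for 72 h. Viability was then measured by MTS assay, reading formazan produced by metabolically active cells as absorbance at 490 nm.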

JeKo-1 cells = assay: Antiproliferative effect, MTS cell viability assay, JeKo-1 cells; conditions: Homo sapiens; JeKo-1 mantle cell lymphoma cells; read-out: IC50 (anti-proliferation) JeKO-1 cells
Method in brief: as §1

BTK = BTK (Homo sapiens, UniProt Q06187); assay: BTK degradation, DC50 and Dmax of Table 1 (cell line not given); parameters: endogenous in cells; conditions: for DC50: concentration giving 50% reduction of BTK expression level
Sequence of BTK (Q06187 whole entry): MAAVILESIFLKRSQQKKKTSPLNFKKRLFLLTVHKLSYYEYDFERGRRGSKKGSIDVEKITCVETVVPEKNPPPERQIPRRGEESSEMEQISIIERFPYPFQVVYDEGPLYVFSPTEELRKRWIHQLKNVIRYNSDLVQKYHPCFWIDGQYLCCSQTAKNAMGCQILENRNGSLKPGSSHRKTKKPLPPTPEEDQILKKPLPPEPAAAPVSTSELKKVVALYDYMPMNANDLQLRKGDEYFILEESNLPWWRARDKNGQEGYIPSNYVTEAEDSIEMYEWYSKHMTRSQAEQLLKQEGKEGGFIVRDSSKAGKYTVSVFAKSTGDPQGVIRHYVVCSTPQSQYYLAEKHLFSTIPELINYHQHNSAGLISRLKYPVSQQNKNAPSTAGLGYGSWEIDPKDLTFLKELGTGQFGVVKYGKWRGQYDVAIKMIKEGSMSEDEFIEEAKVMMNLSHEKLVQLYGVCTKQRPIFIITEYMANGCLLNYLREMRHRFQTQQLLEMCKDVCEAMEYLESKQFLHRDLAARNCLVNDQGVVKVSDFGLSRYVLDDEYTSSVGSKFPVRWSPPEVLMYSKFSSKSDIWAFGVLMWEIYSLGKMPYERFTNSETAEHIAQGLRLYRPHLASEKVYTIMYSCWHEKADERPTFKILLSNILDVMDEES

| Compound | Dmax (BTK) | DC50 (BTK) | IC50 (Mino cells) | IC50 (JeKo-1 cells) |
| --- | --- | --- | --- | --- |
| Nc1ncnc2c1c(-c1ccc(Oc3ccccc3)cc1)nn2[C@@H]1CCCN(C2CCN(C(=O)N3CCN(CCN4CCC(c5ccc6c(c5)CN(C5CCC(=O)NC5=O)C6=O)CC4)CC3)CC2)C1 (stereo partly drawn) [Compound 180, 3-(5-(1-(2-(4-((R)-3-(4-amino-3-(4-phenoxyphenyl)-1H-pyrazolo[3,4-d]pyrimidin-1-yl)-[1,4′-bipiperidine]-1′-carbonyl)piperazin-1-yl)ethyl)piperidin-4-yl)-1-oxoisoindolin-2-yl)piperidine-2,6-dione] | > 75% | 10 to 50 nM | 1000 to 10000 nM | > 10000 nM |
| Nc1ncnc2c1c(-c1ccc(Oc3ccccc3)cc1)nn2[C@@H]1CCCN(C2CCN(CCN3CCN(c4ccc5c(c4)C(=O)N(C4CCC(=O)NC4=O)C5=O)CC3)CC2)C1 (stereo partly drawn) [Compound 147, 5-(4-(2-((R)-3-(4-amino-3-(4-phenoxyphenyl)-1H-pyrazolo[3,4-d]pyrimidin-1-yl)-[1,4′-bipiperidin]-1′-yl)ethyl)piperazin-1-yl)-2-(2,6-dioxopiperidin-3-yl)isoindoline-1,3-dione] | > 75% | 10 to 50 nM | > 10000 nM | > 10000 nM |
| Nc1ncnc2c1c(-c1ccc(Oc3ccccc3)cc1)nn2[C@@H]1CCCN(C2CCN(CCCC3CCN(c4ccc5c(c4)C(=O)N(C4CCC(=O)NC4=O)C5=O)CC3)CC2)C1 (stereo partly drawn) [Compound 155, 5-(4-(3-((R)-3-(4-amino-3-(4-phenoxyphenyl)-1H-pyrazolo[3,4-d]pyrimidin-1-yl)-[1,4′-bipiperidin]-1′-yl)propyl)piperidin-1-yl)-2-(2,6-dioxopiperidin-3-yl)isoindoline-1,3-dione] | > 50% | > 50 nM | > 10000 nM | > 10000 nM |
| Nc1ncnc2c1c(-c1ccc(Oc3ccccc3)cc1)nn2[C@@H]1CCCN(C2CCN(C(=O)N3CCC(CCN4CCC(c5ccc6c(c5)CN(C5CCC(=O)NC5=O)C6=O)CC4)CC3)CC2)C1 (stereo partly drawn) [Compound 184, 3-(5-(1-(2-(1-((R)-3-(4-amino-3-(4-phenoxyphenyl)-1H-pyrazolo[3,4-d]pyrimidin-1-yl)-[1,4′-bipiperidine]-1′-carbonyl)piperidin-4-yl)ethyl)piperidin-4-yl)-1-oxoisoindolin-2-yl)piperidine-2,6-dione] | > 90% | 10 to 50 nM | 1000 to 10000 nM | 1000 to 10000 nM |
| Nc1ncnc2c1c(-c1ccc(Oc3ccccc3)cc1)nn2C1CCN(C(=O)N2CCN(CCCN3CCN(c4ccc5c(c4)CN(C4CCC(=O)NC4=O)C5=O)CC3)CC2)CC1 (centres unmarked) [Compound 120, 3-(5-(4-(3-(4-(4-(4-amino-3-(4-phenoxyphenyl)-1H-pyrazolo[3,4-d]pyrimidin-1-yl)piperidine-1-carbonyl)piperazin-1-yl)propyl)piperazin-1-yl)-1-oxoisoindolin-2-yl)piperidine-2,6-dione] | > 75% | > 50 nM | > 10000 nM | > 10000 nM |
| Nc1ncnc2c1c(-c1ccc(Oc3ccccc3)cc1)nn2[C@@H]1CCCN(CC2CCN(CCCN3CCN(c4ccc5c(c4)CN(C4CCC(=O)NC4=O)C5=O)CC3)CC2)C1 (stereo partly drawn) [Compound 138, 3-(5-(4-(3-(4-(((R)-3-(4-amino-3-(4-phenoxyphenyl)-1H-pyrazolo[3,4-d]pyrimidin-1-yl)piperidin-1-yl)methyl)piperidin-1-yl)propyl)piperazin-1-yl)-1-oxoisoindolin-2-yl)piperidine-2,6-dione] | > 75% | 10 to 50 nM | 1000 to 10000 nM | > 10000 nM |
| Nc1ncnc2c1c(-c1ccc(Oc3ccccc3)cc1)nn2C1CCN(CC2CCN(C(=O)N3CCC(CN4CCN(c5ccc6c(c5)CN(C5CCC(=O)NC5=O)C6=O)CC4)CC3)CC2)CC1 (centres unmarked) [Compound 42, 3-(5-(4-((1-(4-((4-(4-amino-3-(4-phenoxyphenyl)-1H-pyrazolo[3,4-d]pyrimidin-1-yl)piperidin-1-yl)methyl)piperidine-1-carbonyl)piperidin-4-yl)methyl)piperazin-1-yl)-1-oxoisoindolin-2-yl)piperidine-2,6 dione] | > 90% | 10 to 50 nM | < 1000 nM | < 1000 nM |
| Nc1ncnc2c1c(-c1ccc(Oc3ccccc3)cc1)nn2C1CCN(C(=O)N2CCN(CCN3CCC(c4ccc5c(c4)CN(C4CCC(=O)NC4=O)C5=O)CC3)CC2)CC1 (centres unmarked) [Compound 100, 3-(5-(1-(2-(4-(4-(4-amino-3-(4-phenoxyphenyl)-1H-pyrazolo[3,4-d]pyrimidin-1-yl)piperidine-1-carbonyl)piperazin-1-yl)ethyl)piperidin-4-yl)-1-oxoisoindolin-2-yl)piperidine-2,6-dione] | > 90% | 10 to 50 nM | 1000 to 10000 nM | 1000 to 10000 nM |
| Nc1ncnc2c1c(-c1ccc(Oc3ccccc3)cc1)nn2C1CCN(C(=O)N2CCC(N3CCC(c4ccc5c(c4)C(=O)N(C4CCC(=O)NC4=O)C5=O)CC3)CC2)CC1 (centres unmarked) [Compound 83, 5-(1′-(4-(4-amino-3-(4-phenoxyphenyl)-1H-pyrazolo[3,4-d]pyrimidin-1-yl)piperidine-1-carbonyl)-[1,4′-bipiperidin]-4-yl)-2-(2,6-dioxopiperidin-3-yl)isoindoline-1,3-dione] | > 75% | > 50 nM | > 10000 nM | > 10000 nM |
| Nc1ncnc2c1c(-c1ccc(Oc3ccccc3)cc1)nn2[C@@H]1CCCN(C(=O)N2CCN(CCCC3CCN(c4ccc5c(c4)CN(C4CCC(=O)NC4=O)C5=O)CC3)CC2)C1 (stereo partly drawn) [Compound 110, 3-(5-(4-(3-(4-((R)-3-(4-amino-3-(4-phenoxyphenyl)-1H-pyrazolo[3,4-d]pyrimidin-1-yl)piperidine-1-carbonyl)piperazin-1-yl)propyl)piperidin-1-yl)-1-oxoisoindolin-2-yl)piperidine-2,6-dione] | > 75% | > 50 nM | > 10000 nM | > 10000 nM |

Continued, in another order:

| Dmax (BTK) | DC50 (BTK) | Compound | IC50 (Mino cells) | IC50 (JeKo-1 cells) |
| --- | --- | --- | --- | --- |
| > 90% | < 10 nM | Nc1ncnc2c1c(-c1ccc(Oc3ccccc3)cc1)nn2C1CCN(C(=O)N2CCC(CC3CCN(c4ccc5c(c4)CN(C4CCC(=O)NC4=O)C5=O)CC3)CC2)CC1 (centres unmarked) [Compound 90, 3-(5-(4-((1-(4-(4-amino-3-(4-phenoxyphenyl)-1H-pyrazolo[3,4-d]pyrimidin-1-yl)piperidine-1-carbonyl)piperidin-4-yl)methyl)piperidin-1-yl)-1-oxoisoindolin-2-yl)piperidine-2,6-dione] | 1000 to 10000 nM | 1000 to 10000 nM |
| > 90% | 10 to 50 nM | Nc1ncnc2c1c(-c1ccc(Oc3ccccc3)cc1)nn2C1CCCN(CCOCCN2CCN(c3ccc4c(c3)CN(C3CCC(=O)NC3=O)C4=O)CC2)C1 (centres unmarked) [Compound 8, 3-(5-(4-(2-(2-(3-(4-amino-3-(4-phenoxyphenyl)-1H-pyrazolo[3,4-d]pyrimidin-1-yl)piperidin-1-yl)ethoxy)ethyl)piperazin-1-yl)-1-oxoisoindolin-2-yl)piperidine-2,6-dione] | 1000 to 10000 nM | 1000 to 10000 nM |
| > 90% | < 10 nM | Nc1ncnc2c1c(-c1ccc(Oc3ccccc3)cc1)nn2C1CCCN(CCOCCOCCC2CCN(c3ccc4c(c3)CN(C3CCC(=O)NC3=O)C4=O)CC2)C1 (centres unmarked) [Compound 22, 3-(5-(4-(2-(2-(2-(3-(4-amino-3-(4-phenoxyphenyl)-1H-pyrazolo[3,4-d]pyrimidin-1-yl)piperidin-1-yl)ethoxy)ethoxy)ethyl)piperidin-1-yl)-1-oxoisoindolin-2-yl)piperidine-2,6-dione] | < 1000 nM | 1000 to 10000 nM |
| > 90% | < 10 nM | Nc1ncnc2c1c(-c1ccc(Oc3ccccc3)cc1)nn2[C@@H]1CCCN(C(=O)N2CCN(CCC3CCN(c4ccc5c(c4)CN(C4CCC(=O)NC4=O)C5=O)CC3)CC2)C1 (stereo partly drawn) [Compound 68, 3-(5-(4-(2-(4-((R)-3-(4-amino-3-(4-phenoxyphenyl)-1H-pyrazolo[3,4-d]pyrimidin-1-yl)piperidine-1-carbonyl)piperazin-1-yl)ethyl)piperidin-1-yl)-1-oxoisoindolin-2-yl)piperidine-2,6-dione] | 1000 to 10000 nM | 1000 to 10000 nM |
| > 90% | < 10 nM | Nc1ncnc2c1c(-c1ccc(Oc3ccccc3)cc1)nn2C1CCN(CCOCCOCCN2CCC(c3ccc4c(c3)CN(C3CCC(=O)NC3=O)C4=O)CC2)CC1 (centres unmarked) [Compound 10, 3-(5-(1-(2-(2-(2-(4-(4-amino-3-(4-phenoxyphenyl)-1H-pyrazolo[3,4-d]pyrimidin-1-yl)piperidin-1-yl)ethoxy)ethoxy)ethyl)piperidin-4-yl)-1-oxoisoindolin-2-yl)piperidine-2,6-dione] | < 1000 nM | 1000 to 10000 nM |
| > 90% | < 10 nM | Nc1ncnc2c1c(-c1ccc(Oc3ccccc3)cc1)nn2C1CCN(CCOCCOCCC2CCN(c3ccc4c(c3)CN(C3CCC(=O)NC3=O)C4=O)CC2)CC1 (centres unmarked) [Compound 18, 3-(5-(4-(2-(2-(2-(4-(4-amino-3-(4-phenoxyphenyl)-1H-pyrazolo[3,4-d]pyrimidin-1-yl)piperidin-1-yl)ethoxy)ethoxy)ethyl)piperidin-1-yl)-1-oxoisoindolin-2-yl)piperidine-2,6-dione] | 1000 to 10000 nM | < 1000 nM |
| > 90% | < 10 nM | Nc1ncnc2c1c(-c1ccc(Oc3ccccc3)cc1)nn2[C@@H]1CCCN(C(=O)N2CCC(CC3CCN(c4ccc5c(c4)CN(C4CCC(=O)NC4=O)C5=O)CC3)CC2)C1 (stereo partly drawn) [Compound 60, 3-(5-(4-((1-((R)-3-(4-amino-3-(4-phenoxyphenyl)-1H-pyrazolo[3,4-d]pyrimidin-1-yl)piperidine-1-carbonyl)piperidin-4-yl)methyl)piperidin-1-yl)-1-oxoisoindolin-2-yl)piperidine-2,6-dione] | < 1000 nM | < 1000 nM |
